According to patent publication US20110218229A1, “SIRT1 Modulation of Adipogenesis and Adipose Function” (priority 2003, published 2011):

What was measured:
SIRT1 = SIRT1 expression in transformed 3T3-L1 fibroblasts (Western Blot); type: cell-based, mouse; settings: for SIRT1 expression level versus control fibroblasts: Western Blot, actin control
Procedure: Samples of inguinal, epididymal, and retroperitoneal WAT were taken from the mice and subjected to Western Blot analyses using actin as a control to determine if SIRT1 was expressed in each of the three samples. Protein samples were prepared from WAT adipocytes by lysis in RIPA buffer supplemented with protease inhibitors. Twenty micrograms of protein were resolved in 9% SDS-PAGE and transferred to nitrocellulose membranes. SIRT1 protein was probed with mSIRT1 antibody (Upstate Inc.) and detected by ECL (Amersham). An actin antibody (Santa Cruz) was used in the Western Blot as a control. Pronounced SIRT1 expression levels were detected in each of the three WAT samples.
(§1) 3T3-L1 fibroblasts were transformed through standard techniques with either a pBABE control vector (“control fibroblasts”) or a vector comprising pBABE-mSIRT1 cDNA (“mSIRT1 cDNA fibroblasts”). Western Blot analyses of SIRT1 expression by the control and mSIRT1 cDNA fibroblasts were performed using antibodies and actin control as in Example 1.
(§2) 3T3-L1 fibroblasts were transformed with either a pSUPER control vector (“control fibroblasts”), a vector comprising pSUPER-mSIRT1 RNAi WT (SEQ ID NO: 24) (“mSIRT1 RNAi WT fibroblasts”), or pSUPER-mSIRT1 RNAiMUT (SEQ ID NO: 25), (“mSIRT1 RNAiMUT fibroblasts”). Western Blot analyses of SIRT1 expression by the control, mSIRT1 RNAi WT, and mSIRT1 RNAiMUT fibroblasts were performed using antibodies and actin controls as in Example 1.
Retroviral infection was performed as described in Tontonoz et al. (1994) Cell 79:1147. Phoenix cells were transfected with either pBABE, pBABE-Sirt1, pSUPERretro (Oligoengine), pSUPERretro-Sirt1 RNAi (5′-GATGAAGTTGACCTCCTCA-3′, SEQ ID NO:24) or pSUPER-NCoR RNAi (5′-GCTGCATCCAAGGGCCATG-3′, SEQ ID NO:25) using Lipofectamine (Invitrogen). After 48 h of transfection, the medium containing retroviruses was collected, filtered, treated by polybrene (1 μg ml^−1) and transferred to 3T3-L1 target cells. Infected cells were selected with puromycin (2.5 μg ml^−1) for 7 days.

3T3-L1 adipocytes [1] = assay: Fat content by staining in fully differentiated 3T3-L1 cells; type: cell-based, mouse
Procedure: (§3) We fully differentiated 3T3-L1 cells and subsequently (12 days after induction) applied the Sirt1 activator resveratrol over a wide range of concentrations. […] To validate further these visual results, we measured triglyceride content and free fatty acid (FFA) release in these cells.
(§4) To stimulate adipogenesis and accumulation of lipids in cells, medium was supplemented to confluent cells (day 0) with 2 μM insulin or 10^−7M rosiglitazone (Alexis Biochemicals), as stated in the text, 1 μM dexamethasone, and 0.25 mM isobuthylmethylxanthine (IBMX) for 2 days. The cells were then incubated with insulin or 10^-7 M rosiglitazone, changing the medium every second day. Fat accumulation was visualized by staining of lipids with Oil red O. Intracellular triglyceride levels were measured in cell lysates by an enzymatic method using a reagent kit from Boehringer Mannheim.

[2] = test system: primary rat white adipocytes; assay: FFA release triggered by adrenalin in primary white adipocytes; type: cell-based; settings: with adrenalin
Source text: To determine whether Sirt1 stimulates fat mobilization in bona fide adipocytes, we cultured primary rat white adipocytes and activated fat mobilization with the known β-adrenergic inducer adrenalin. […] In a converse experiment using these rat adipocytes, we addressed whether inhibition of Sirt1 would blunt the mobilization of fat by adrenalin. Addition of the known Sirt1 inhibitor nicotinamide 16 indeed reduced the release of FFA triggered by adrenalin. The above findings indicate that Sirt1 not only represses the differentiation program of adipocytes, but also activates the mobilization of fat in fully differentiated cells.
Cell culture, retroviral infection and transfection. 3T3-L1, HEK293, 293T and Phoenix cells (ATCC, Rockville, Md.) were cultured in Dulbecco's modified Eagle's medium with 10% FCS, and antibiotics. Primary adipocytes from Sprague-Dawley rats were prepared as described previously 25. Transfections for luciferase assays were done as described using pSPORT6-PPAR-γ2, pGL3-PPRE26 and pcDNA3-Sirt1. Data were corrected for transfection efficiency.

UCP1 = UCP1 expression in BAT cells; type: cell-based
Source text: Further observations were made. A mouse genetically deficient for SIRT1 activity cannot regulate body temperature in the cold. The mouse appears unable to induce the UCP1 gene or related transcriptional programs. We used chromatin immunoprecipitations to characterize genes which may include regulatory sequences that are directly or indirectly bound by SIRT1. We discovered that, at least in brown fat cells, the UCP1 promoter is bound by SIRT1. SIRT1 responds to stress and activates UCP1 transcription. At least in part, the transcriptional activation is a result of the PGC1 co-factor, which is present in BAT cells, but absent in WAT cells, PGC1 modifies SIRT1 from a repressor to an activator. PGC1, SIRT1, and PPARγ are able to form a ternary complex which functions as a transcriptional activator. SIRT1 may have a similar function in other cells that express PGC1, e.g., muscle and liver cells. Moreover, resveratrol increases UCP1 expression in BAT cells.

3T3-L1 adipocytes [3] = assay: Free fatty acid (FFA) release in fully differentiated 3T3-L1 cells; type: cell-based, mouse
Procedure: as §3
Wild-type FVB male age-matched (12-16 weeks old) mice were used for the present studies. Sirt1+/+ and Sirt1+/− genotypes have been described previously 21. All mice were housed under controlled temperature (25±1° C.) and lighting conditions. Food provided was normal chow. All mice were cared for in accordance with the MIT animal care committee. Blood was collected from the retro-orbital sinus and kept on ice until centrifugation (1,500 g, 15 min at 4° C.), and the plasma was stored at −20° C. until analysis. All animals were killed by decapitation. WAT depots were collected, weighed and quickly frozen in liquid nitrogen and stored at −70° C. until further processing by immunoblotting. Non-esterified free fatty acids were determined by enzymatic assays (Wako Pure Chemical Industries).

3T3-L1 adipocytes [4] = assay: Triglyceride content in fully differentiated 3T3-L1 cells; type: cell-based, mouse; settings: control cells
Procedure: as §3, §4

3T3-L1 fibroblasts [5] = assay: 3T3-L1 adipogenesis / differentiation (Oil Red O staining); type: cell-based, mouse
Procedure: The 3T3-L1 mouse fibroblasts used in this example, and in Examples 4-10 hereinafter, were prepared in accordance with standard protocol as follows. 3T3-L1 cells (ATCC CL-173, Rockville, Md.) were grown to confluence (day 0) in medium A (Dulbecco's modified Eagle's Medium with 10% fetal calf serum, 100 units/ml penicillin, and 100 μg/ml streptomycin). Confluent cell were incubated in medium A containing 2 μM insulin, 1 μM dexamethasone, and 0.25 mM isobuthyl methyl xanthine for two days. Thereafter, confluent fibroblasts were treated with insulin for five days and at the end of such treatment were in a condition for functional study. Adipogenesis was evaluated by analysis of the expression of adipocyte-specific markers and by staining of lipids with Oil Red O (Chawla & Lazar, 1994, Proc. Natl. Acad. Sci. USA 91, 1786-1790).
as §1, §2
To stimulate adipogenesis and accumulation of lipids in cells, medium was supplemented to confluent cells (day 0) with 2 μM insulin or 10^−7M rosiglitazone (Alexis Biochemicals), as stated in the text, 1 μM dexamethasone, and 0.25 mM isobuthylmethylxanthine (IBMX) for 2 days. […] Fat accumulation was visualized by staining of lipids with Oil red O. Intracellular triglyceride levels were measured in cell lysates by an enzymatic method using a reagent kit from Boehringer Mannheim.

3T3-L1 cells = assay: Mitotic divisions after induction (BrdU incorporation) in 3T3-L1; type: cell-based, mouse
Source text: We evaluated whether the mammalian Sir2 orthologue, Sirt1, senses nutrient availability in WAT and mediates corresponding effects on fat accumulation. To probe whether Sirt1 may actually modulate adipogenesis, we used mouse 3T3-L1 fibroblasts as an in vitro model. Adipogenesis in these cells is promoted by the nuclear receptor PPAR-γ. Upon induction of adipogenesis by insulin, dexamethasone and isobutylmethylxanthine, we observed that Sirt1, protein levels increased and peaked at day 5 after hormonal stimulation. […] 3T3-L1 cells undergo one or two mitotic divisions after induction as a prelude to terminal differentiation.

[6] = test system: C/EBPβ, C/EBPδ, C/EBPα, PPARγ, aP2; assay: Adipogenesis transcription factor levels in 3T3-L1 (Western Blot, semi-quantitative RT-PCR); type: cell-based, mouse
Procedure: 3T3-L1 fibroblasts were transformed through standard techniques with either a pBABE control vector (“control fibroblasts”) or a vector comprising pBABE-mSIRT1 cDNA (“mSIRT1 cDNA fibroblasts”) in accordance with Example 4. Protein and total RNA was extracted from the differentiated cells. Western Blot analyses of levels of the PPARγ and C/EBPα transcription factors present in the protein extracts from the control and mSIRT1 cDNA fibroblasts were performed using antibodies and actin control as in Example 1.
Semi-quantitative RT-PCR analysis was also conducted to determine levels of the C/EBPβ, C/EBPδ, C/EBPα, PPARγ transcription factors and aP2 (PPARγ target gene) present in the protein and total RNA extracted from the control and mSIRT1 cDNA fibroblasts. In this analysis, GAPDH was used as an internal control for cDNA input in the PCR.
3T3-L1 fibroblasts were transformed through standard techniques with either a pSUPER control vector (“control fibroblasts”) or a vector comprising pSUPER-mSIRT1 RNAiWT ([…]) (“mSIRT1 RNAiWT fibroblasts”) in accordance with Example 5. Protein and total RNA was extracted from the differentiated cells. […]
Semi-quantitative RT-PCR analysis was also conducted to determine levels of the C/EBPβ, C/EBPδ, C/EBPα, PPARγ, and aP2 (PPARγ target gene) present in the protein and total RNA extracted from the control and mSIRT1RNAiWT fibroblasts. […]

3T3-L1 fibroblasts [7] = assay: Isoproterenol-induced lipolysis in 3T3-L1 (fatty acid concentration); type: cell-based, mouse; settings: day 7, isoproterenol (10^−5M), four hours; controls 0.627 mM (pBABE) and 0.508 mM (pSUPER)
Procedure: The amount of fat generated by adipocyte lipolysis should be proportional to the fat content of the adipocyte. In the experiment of this example, four samples of 3T3-L1 fibroblasts were prepared essentially as in Example 3 (except for the change in protocol noted below), and transformed as in Examples 4 and 5 with either pBABE control vector (“pBABE control fibroblasts”), pBABE-mSIRT1 cDNA (“mSIRT1 cDNA fibroblasts”), pSUPER control vector (“pSUPER control fibroblasts”), or pSUPER-mSIRT1 RNAi WT (SEQ ID NO: 24) (“mSIRT1 RNAi WT fibroblasts”).
Fatty acid concentrations in each of the four samples were measured four hours later and the results of these measurements are shown in FIG. 1. Six wells were used for each of the four samples. Results from the different wells were averaged.

3T3-L1 fibroblasts [8] = assay: Intracellular triglyceride levels in transformed 3T3-L1; type: cell-based, mouse; settings: day 7, Folch extraction, six wells per condition
Procedure: Fibroblast intracellular trigylceride (“TG”) levels should decrease upon inhibition of fibroblast differentiation resulting from overexpression of SIRT1. Consistent with Examples 4 and 5, it should be possible to measure in a quantitative manner the amount of intracellular triglycerides that can be observed by Oil Red O staining. To do so, 3T3-L1 fibroblasts were prepared as in Example 3 and transformed as in Examples 4 and 5 with either pBABE control vector (“pBABE control fibroblasts”), pBABE-mSIRT1 cDNA (“mSIRT1 cDNA fibroblasts”), pSUPER control vector (“pSUPER control fibroblasts”), or pSUPER-mSIRT1 RNAi WT (SEQ ID NO: 24) (“mSIRT1 RNAi WT fibroblasts”).
At day 7, the cells were lysed in methanol and neutral lipids were extracted by the Folch method and resuspended in isopropanol. Triglyceride levels were measured by calorimetric methods using a commercial kit (Trig/GB #450032, Roche Diagnostics, Indianapolis, Ind.). Six wells per condition were analyzed.

mSIRT1 RNAiMUT: mutation of mSIRT1 RNAiWT, 5′-GATGAAGTCGACCTCCTCA-3′ (SEQ ID NO: 25) (expressed or natural sequence)
SIRT1 expression level versus control fibroblasts (SIRT1): comparable with those of the control fibroblasts | SIRT1 expression level versus control fibroblasts (SIRT1; listed as SIRT1 mRNAi-mut): no effect on SIRT1 expression

Oc1ccc(/C=C/c2cc(O)cc(O)c2)cc1 [resveratrol, 3,5,4′-trihydroxy-tans-stilbene]
fat content after staining (3T3-L1 adipocytes [1]; cells in which Sirt1 levels were knocked down): no drug-mediated fat reduction | fat content after staining (3T3-L1 adipocytes [1]; fully differentiated 3T3-L1 cells, 12 days after induction, 50 and 100 μM resveratrol): strong reduction in fat | release of FFA triggered by adrenalin [2]: greatly stimulated | UCP1 expression (UCP1): increases | release of FFA (3T3-L1 adipocytes [3]; Sirt1 knockdown cells): but not in the Sirt1 knockdown cells | release of FFA (3T3-L1 adipocytes [3]; control cells): stimulated | triglyceride content (3T3-L1 adipocytes [4]): reduced

NCoR RNAi: pSUPER-NCoR RNAi virus, 5′-GCTGCATCCAAGGGCCATG-3′
reduction of fat accretion by Sirt1 overexpression (3T3-L1 fibroblasts [5]; Sirt1-overexpressing 3T3-L1 fibroblasts infected with NCoR RNAi virus): largely prevented

mSIRT1 RNAi WT: pSUPER vector with RNAi sequence 5′-GATGAAGTTGACCTCCTCA-3′ (SEQ ID NO: 24), interferes with SIRT1 expression
mitotic divisions after induction (3T3-L1 cells): occurred normally | fat / triglyceride accumulation versus control vector (3T3-L1 fibroblasts [5]; Oil red O staining after 7 days of differentiation or intracellular triglyceride content): significant increase in triglyceride accumulation | differentiation by Oil Red O staining versus control fibroblasts (3T3-L1 fibroblasts [5]; transformed 3T3-L1 fibroblasts): marked increase in differentiation | PPARγ levels versus control fibroblasts ([6]; Western Blot of extracts from differentiated cells): Higher levels of PPARγ | levels of C/EBPβ, C/EBPδ, C/EBPα, PPARγ and aP2 ([6]; semi-quantitative RT-PCR, GAPDH internal control): increased levels of all of the assayed transcription factors except C/EBPβ | change of Sirt1 gene expression (SIRT1; retroviral infection of 3T3-L1 cells): downregulation (sevenfold) | lipolysis level (fatty acid concentration) (3T3-L1 fibroblasts [7]): 0.727 mM | TG levels versus respective control (3T3-L1 fibroblasts [8]): higher

NC(=O)c1cccnc1 [nicotinamide]
release of FFA triggered by adrenalin [2]: reduced
